Data taken from patent US7812121B2 (priority 2006, dated 2010).
Blank lines part the entries; values can stand above or below the molecule they belong to.

Tests used:
[1] = test system: CD1 mice; experiment: Mucosal weight gain in small intestine, 10 days daily s.c. dosing; format: in vivo; details: 2.5 mg/kg (13.3 nmole), p<0.0001
Text: Afterwards, the mice were euthanized and the small intestines were removed, flushed with saline, and processed as described below.
Specifically, 4 cm sections were harvested: (1) immediately distal to the pylorus (duodenum), (2) starting 2 cm distal of the ligament of Treitz (jejunum), and (3) immediately proximal to the cecum (ileum). The remaining small intestine from ˜6 cm distal of the ligament of Treitz to 4 cm proximal to the cecum was used to prepare mucosal scrapings. From the proximal and distal ends of the remnant, an equal distance was removed until a 15 cm section remained, the remnant was cut longitudinally, rinsed, and the mucosal layer was removed using the short end of a glass microscope slide. The wet weight of the intact intestinal segments and mucosa was measured.

[2] = SEC-SLS solution molecular weight / self-association; format: physicochemical; details: PBS (pH 7.5), 1 mg/ml
Protocol: Solution molecular weight of the peptides was measured by SEC-SLS. Briefly, peptide solutions in PBS (pH 7.5) at 0.4 to 2.0 mg/mL were fractionated over a Superdex peptide column (Amersham Pharmacia). The eluted peaks were monitored by static light scattering at 690 nm and solution molecular weight was determined at UV 280 nm using the Astra software package (Wyatt Inc.).

[3] = CD spectra secondary structure; format: physicochemical; details: 0.2 mg/mL peptide in PBS, 25° C.
Protocol: The secondary structures of tested peptides were determined using 0.2 mg/mL peptide solutions in PBS. Briefly, CD spectra were collected in triplicate at 1 nm intervals at 25° C. in 0.1 cm path length cell. Secondary structures were determined by fitting of the CD spectra using CD spectra software (CD Spectra Deconvolution software 2.1). All tested peptides contained peaks corresponding to the presence of alpha helices.

[4] = test system: normal mice; experiment: Upper gastrointestinal transit, carmine dye technique; format: in vivo; details: 50 μg/mouse daily s.c. for 10 days, 20-minute test period, vs PBS vehicle
Protocol: To test the effects of A2G-GLP-2 on upper gastrointestinal transit in normal mice, mice were randomly assigned to 2 groups (14 animals per test group). Each group received daily subcutaneous injection (total volume […]) of either A2G-GLP-2 peptide (50 μg/mouse) or the phosphate-buffered saline vehicle for 10 consecutive days.
On the day of study, upper gastrointestinal transit was measured using the carmine dye technique. Mice were fed a test meal of 0.25 ml of a 6% (w/v) solution of carmine cochineal powder mixed into 0.5% (w/v) methylcellulose administered intragastrically by an 18 gauge curved feeding tube. Following oral test meal administration, mice were replaced into their home cages. Twenty minutes after marker meal administration, mice were rapidly euthanized by cervical dislocation and the entire gastrointestinal tract was excised starting from the distal colon and working towards the gastric pylorus. […] The linear distance traversed by the carmine dye front through the small intestine was measured together with the total length of the small bowel. Upper gastrointestinal transit was expressed as the percentage of the entire small intestine traversed by the carmine dye front during the 20-minute test period; % small intestine traveled=[distance traversed by dye front through small intestine (cm)/entire small intestine length (cm)×100].

[5] = test system: CD-1 mice; experiment: Gastrointestinal transit in post-operative inflammatory ileus; format: in vivo; details: 2 mg/kg one hour before surgery, FITC-dextran 48 hr after operation, 45 minutes
Protocol: On the day of study, upper gastrointestinal transit was measured using the FITC-dextran method. This method provides both, a measure of gastrointestinal transit and a readout of the pattern of distribution of the test meal along the gastrointestinal tract. Mice were fed a test meal of […] of FITC-dextran solution (5 mg/ml of 70,000 molecular weight dextran conjugated to fluorescein-isothiocyanate in 0.5% methylcellulose/deionized water) administered intragastrically by an 18 gauge curved feeding tube. Following oral administration of the FITC-dextran test meal, mice were returned to their home cages. It was shown that a 30 min test period was the optimum duration for detecting accelerated transit, while a 45 min test period was optimum for detecting delayed transit. Following the appropriate test period, mice were sacrificed by carbon dioxide exposure. The entire gastrointestinal tract from the lower esophageal sphincter to the terminal colon was removed. […] Aliquots of the cleared supernatant were read in duplicate on a 96-well fluorescence plate reader to quantify the magnitude of the fluorescent signal in each segment of bowel. […] The GC is calculated in the lower panel for statistical comparison. […]
All mice received an oral test meal of FITC-dextran 48 hr after the operation. Gastrointestinal transit was determined 45 minutes after oral feeding. […]

[6] = test system: mice; experiment: Myeloperoxidase histochemistry of intestinal muscularis in post-operative inflammatory ileus; format: in vivo; details: 2 mg/kg one hour before surgery, tissue 48 hr after operation
Protocol: Myeloperoxidase histochemistry was performed on tissues harvested from the mid-small bowel of the mice 48 hr after the operation.
Briefly, segments of mid-small bowel were collected from the centrifuge tubes described in Example 12. Whole mounts of the muscle layer were prepared by pinning the tissue flat in a Sylgard® lined Petri dish and stretching the tissue to 2 times its length and 1.5 times its width. The mucosa was removed by fine dissection. The muscularis whole mounts were then fixed with 100% ethanol for 1 hr, washed 3 times with PBS, and incubated for 20 min in PBS containing 0.1% hydrogen peroxide and 1 mg/ml Hanker-Yates reagent. Following a second wash with PBS, the whole mounts were mounted on glass slides, cover-slipped, and viewed on an optical microscope. Myeloperoxidase containing leukocytes were counted in 6 to 8 adjacent 200× optical fields of view and the mean cell counts were calculated and recorded.

- SEC-SLS elution / association state of peptides [2]: overlapping dimer and monomer peaks
- Helix [3]: 20.7%
- Random coil [3]: 37.1%
Molecule: CC[C@H](C)[C@H](NC(=O)[C@H](Cc1ccccc1)NC(=O)[C@H](CC(=O)O)NC(=O)[C@H](CCCNC(=N)N)NC(=O)[C@H](C)NC(=O)[C@H](C)NC(=O)[C@H](CC(C)C)NC(=O)[C@H](CC(N)=O)NC(=O)[C@H](CC(=O)O)NC(=O)[C@H](CC(C)C)NC(=O)[C@@H](NC(=O)[C@@H](NC(=O)[C@H](CC(N)=O)NC(=O)[C@H](CCSC)NC(=O)[C@H](CCC(=O)O)NC(=O)[C@H](CC(=O)O)NC(=O)[C@H](CO)NC(=O)[C@H](Cc1ccccc1)NC(=O)[C@H](CO)NC(=O)CNC(=O)[C@H](CC(=O)O)NC(=O)CNC(=O)[C@@H](N)Cc1c[nH]cn1)[C@@H](C)O)[C@@H](C)CC)C(=O)N[C@@H](CC(N)=O)C(=O)N[C@@H](Cc1c[nH]c2ccccc12)C(=O)N[C@@H](CC(C)C)C(=O)N[C@H](C(=O)N[C@@H](CCC(N)=O)C(=O)N[C@H](C(=O)N[C@@H](CCCCN)C(=O)N[C@H](C(=O)N[C@H](C(=O)N[C@@H](CC(=O)O)C(=O)O)[C@@H](C)O)[C@@H](C)CC)[C@@H](C)O)[C@@H](C)CC [SEQ ID NO: 3, GLP-2(A2G), reference compound]
- increase in mucosal wet weight [1]: statistically significant increase
- upper gastrointestinal transit ([4]; listed as A2G-GLP-2): acceleration of upper gastrointestinal transit
- upper gastrointestinal transit ([4]; listed as A2G-GLP-2 peptide): significant acceleration of intestinal transit

B1: SEQ ID NO: 80: human A2G-GLP2 peptide in murine IgG2a scaffold (protein)
chain: HGDGSFSDEMNTILDNLAARDFINWLIQTKITDGSGGGSGTTVTVSAEPRGPTIKPCPPCKCPAPNAAGGPSVFIFPPKIKDVLMISLSPIVTCVVVDVSEDDPDVQISWFVNNVEVHTAQTQTHREDYNSTLRVVSALPIQHQDWMSGKEFKCKVNNKDLPAPIERTISKPKGSVRAPQVYVLPPPEEEMTKKQVTLTCMVTDFMPEDIYVEWTNNGKTELNYKNTEPVLDSDGSYFMYSKLRVEKKNWVERNSYSCSVVHEGLHNHHTTKSFSRTPGK
modifications: Human A2G-GLP2 peptide in murine IgG2a scaffold
- gastrointestinal transit after abdominal surgery ([5]; listed as murine A2G GLP-2 mimetibody): significant attenuation of the delay in gastrointestinal transit
- gastrointestinal transit after abdominal surgery ([5]; listed as murine A2G-GLP-2 mimetibody): significant improvement in transit
- number of MPO-positive leukocytes infiltrating small intestinal muscle layer [6]: significantly reduced the number of infiltrating cells
